Results as given in patent publication US8889677B2, “Substituted triazoles useful as mGlu5 receptor modulators” (Boehringer Ingellheim International GmbH, priority 2012, dated 2014).

Molecular target: T1, human recombinant mGluR5 (Homo sapiens, UniProt P41594)
T1 construct: expressed in transfected cells; host or cells: HEK 293 cell line cultured with tetracycline, hygromycin and geneticin; tetracycline removed 3-7 days before the assay
Test: positive modulation of mGluR5, calcium based FLIPR assay in HEK 293 cells
Conditions: HEK 293 cell line expressing human recombinant mGluR5; EC50 of the modulation of the glutamate response (glutamate approx. 5% basal stimulation); peak height of Ca release fluorescence signal
Method: The positive modulation of mGluR5 is measured in a HEK 293 cell line expressing human recombinant mGluR5 and is detected with calcium based FLIPR assay. The cells are cultured with DMEM supplemented with 10% FCS, 2 μg/mL tetracycline, 100 μg/mL hygromycin and 500 μg/mL gneticin. The cell culture media is exchanged for tetracycline-free cell culture media 3-7 days before the assay. One day before the assay the cell culture medium is exchanged to DMEM without glutamine and phenol red and supplemented with 10% FCS, 100 μg/mL hygromycin and 500 μg/mL geneticin. On the assay day, the medium of the subconfluent cultures is removed and the cells are detached by addition of 2.5 ml EDTA (0.02%) per 175 cm2 culture flask for 1 minute. The cells are resuspend in Ringer solution (140 mM NaCl, 5 mM KCl, 2.5 mM CaCl2, 1.5 mM MgCl2, 5 mM Glucose, 10 mM Hepes; adjusted to pH 7.4 with NaOH), pooled and Ringer solution added to adjust the volume to 50 mL. The cell suspension is centrifuged for […] at 1500 U/min (425 g). The supernatant is removed and the cells washed a second time with 50 ml fresh Ringer solution and centrifuged again as before. The supernatant is again removed and the pellet resuspended in Ringer solution to 1,000,000 cells/ml (1×10^6 cells/mL). The cells are plated onto BD BioCoat Poly-D-Lysine 384 well plates (20.000 cells/well; 20 μl/well). The lid covered plates are then incubated until use at 37° C./10% CO2. For dye loading, 20 μl of Calcium-4 assay kit solution (prepared according to the manufacturer's description in Ringer solution) are added to the cells and the plates are incubated for 80 min 37° C. and then 10 min at room temperature.
Controls, Compound Dilution and Assay Execution:
Each assay plate contained wells with “high” and “low” controls:
Low controls 1% DMSO/ringer solution+basal glutamate activation (defined as 100% CTL).
High controls 10 μM CDPPB+basal glutamate activation (defined as 200% CTL).
Test compounds are dissolved and diluted in DMSO to 100-fold the desired concentrations. In a second step, the compounds are diluted in Ringer solution such that the compounds are 4-fold more concentrated than the desired final assay concentration. The final DMSO concentration was 1%.
20 μl of each compound solution are then transferred to the assay plate and the Ca2+ kinetic is measured to determine any intrinsic compound activity. After 5 min incubation in the FLIPR device, the second stimulation with 20 μl of glutamate in Ringer solution (glutamate concentration adjusted to approximately 5% basal stimulation of the maximal possible glutamate effect) is added and the kinetic Ca2+ response of the wells was measured for the modulation effect.
The peak height of the Ca release related fluorescence signal (9-66) is used for the EC50. The EC50 of the modulation is calculated over a nonlinear regression with GraphPad Prism (Table 1).

T1 sequence (P41594 21-1212): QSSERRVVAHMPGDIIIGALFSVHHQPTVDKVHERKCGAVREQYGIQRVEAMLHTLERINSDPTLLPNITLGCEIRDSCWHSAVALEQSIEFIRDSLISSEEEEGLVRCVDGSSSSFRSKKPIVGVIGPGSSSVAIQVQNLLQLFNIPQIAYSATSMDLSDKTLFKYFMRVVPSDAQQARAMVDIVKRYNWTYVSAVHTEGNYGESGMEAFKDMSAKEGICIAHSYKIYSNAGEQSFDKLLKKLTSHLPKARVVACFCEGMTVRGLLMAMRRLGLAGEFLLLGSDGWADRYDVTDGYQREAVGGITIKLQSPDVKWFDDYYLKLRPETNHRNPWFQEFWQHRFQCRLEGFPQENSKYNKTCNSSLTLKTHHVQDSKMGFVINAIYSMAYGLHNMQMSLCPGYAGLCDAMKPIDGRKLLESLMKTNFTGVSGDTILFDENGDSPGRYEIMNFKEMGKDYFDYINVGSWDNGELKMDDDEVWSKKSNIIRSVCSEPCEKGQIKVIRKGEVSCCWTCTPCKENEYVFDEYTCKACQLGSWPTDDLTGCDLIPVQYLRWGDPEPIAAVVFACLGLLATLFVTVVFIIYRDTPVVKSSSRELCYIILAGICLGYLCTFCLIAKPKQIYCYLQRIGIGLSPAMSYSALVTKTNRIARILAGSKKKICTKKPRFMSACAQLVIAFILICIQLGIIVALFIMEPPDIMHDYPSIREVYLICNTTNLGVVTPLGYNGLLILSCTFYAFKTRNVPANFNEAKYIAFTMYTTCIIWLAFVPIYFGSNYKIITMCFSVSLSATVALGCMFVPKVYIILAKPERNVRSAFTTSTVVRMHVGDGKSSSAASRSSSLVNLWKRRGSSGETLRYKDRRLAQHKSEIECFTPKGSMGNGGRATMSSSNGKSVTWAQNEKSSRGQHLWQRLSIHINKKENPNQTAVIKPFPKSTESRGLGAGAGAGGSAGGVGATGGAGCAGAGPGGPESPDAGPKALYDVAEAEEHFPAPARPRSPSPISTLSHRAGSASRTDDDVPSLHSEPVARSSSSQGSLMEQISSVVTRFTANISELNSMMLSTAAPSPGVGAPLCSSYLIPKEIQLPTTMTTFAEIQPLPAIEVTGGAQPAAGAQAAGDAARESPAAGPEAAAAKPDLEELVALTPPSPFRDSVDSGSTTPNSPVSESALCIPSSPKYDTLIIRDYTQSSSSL

| SMILES | EC50 [nM] |
| --- | --- |
| CC(C)Oc1ccc(-c2nc(-c3ccccc3)n(CC(=O)N3CCN(c4ncccn4)CC3)n2)cc1 [Example 07.10.18.] | 1050 |
| O=C(Cn1nc(-c2ccc(F)cc2)nc1-c1ccc(F)cc1)N1CCN(c2ccc(Br)cn2)CC1 [Example 07.03.20.] | 467 |
| COc1ccc(-c2nc(-c3ccccc3)n(CC(=O)N3CCN(c4ncccn4)CC3)n2)cc1C [Example 07.10.17.] | 43 |
| COc1cc(N2CCN(C(=O)Cn3nc(-c4ccc(F)cc4)nc3-c3ccccc3)CC2)ncn1 [Example 07.10.32.] | 225 |
| O=C(Cn1nc(-c2ccc(F)cc2)nc1-c1ccc(F)cc1)N1CCN(c2ccccc2O)CC1 [Example 07.04.010.] | 1200 |
| O=C(Cn1nc(-c2ccc(F)cc2)nc1-c1ccc(F)cc1)N1CCN(c2nccc(C(F)(F)F)n2)CC1 [Example 07.03.21.] | 278 |
| O=C(Cn1nc(-c2ccc(F)cc2)nc1-c1ccc(F)cc1)N1CCN(c2cc(OC[C@@H]3CCCO3)ncn2)CC1 [Example 07.09.23.] | 62 |
| COc1cc(N2CCN(C(=O)Cn3nc(-c4ccc(F)cc4)nc3-c3ccc(F)cc3)CC2)ncn1 [Example 07.04.016.] | 62 |
| O=C(Cn1nc(-c2ccc(F)cc2)nc1-c1ccc(F)cc1)N1CCN(c2cc(OCC3CCOCC3)ncn2)CC1 [Example 07.09.29.] | 44 |
| O=C(Cn1nc(-c2ccc(F)cc2)nc1-c1ccc(F)cc1)N1CCN(c2cc(NC3CC3)ncn2)CC1 [Example 07.08.04.] | 430 |
| O=C(Cn1nc(-c2ccc(F)cc2)nc1-c1ccc(F)cc1)N1CCN(c2cc(N3CCC3)ncn2)CC1 [Example 07.08.22.] | 280 |
| COc1ccc(-c2nc(-c3ccccc3)n(CC(=O)N3CCN(c4cc(C)ccn4)CC3)n2)cc1 [Example 07.04.160.] | 80 |
| Cc1ccnc(N2CCN(C(=O)Cn3nc(-c4ccc(F)cc4)nc3C3CCCCC3)CC2)c1 [Example 07.04.030.] | 1420 |
| COc1cccc(-c2nc(-c3ccc(F)cc3)nn2CC(=O)N2CCN(c3ncccn3)CC2)c1 [Example 07.04.026.] | 236 |
| O=C1CCCN1CCOc1cc(N2CCN(C(=O)Cn3nc(-c4ccc(F)cc4)nc3-c3ccc(F)cc3)CC2)ncn1 [Example 07.09.12.] | 170 |
| CCCc1nc(-c2ccc(OC(F)F)cc2)nn1CC(=O)N1CCN(c2cc(OC)ncn2)CC1 [Example 7.04.169] | 928 |
| COc1cc(N2CCN(C(=O)Cn3nc(-c4ccc(F)c(F)c4)nc3-c3ccccc3)CC2)ncn1 [Example 07.10.33.] | 359 |
| Cc1cc(-c2nc(C)n(CC(=O)N3CCN(c4ccccn4)CC3)n2)ccc1F [Example 07.04.095.] | 1660 |
| COCCNc1cc(N2CCN(C(=O)Cn3nc(-c4ccc(F)cc4)nc3-c3ccc(F)cc3)CC2)ncn1 [Example 07.08.21.] | 201 |
| N#Cc1cccnc1N1CCN(C(=O)Cn2nc(-c3ccc(F)cc3)nc2-c2ccc(F)cc2)CC1 [Example 07.02.01., 2-(4-(2-(3,5-Bis-(4-fluoro-phenyl)-(1,2,4)triazol-1-yl)-acetyl)-piperazin-1-yl)-nicotinonitrile] | 190 |
| CCN(CC)c1cc(N2CCN(C(=O)Cn3nc(-c4ccc(F)cc4)nc3-c3ccc(F)cc3)CC2)ncn1 [Example 07.08.15.] | 205 |
| CCOc1ccc(-c2nc(-c3ccccc3)n(CC(=O)N3CCN(c4ncccn4)CC3)n2)cc1 [Example 07.10.13.] | 77 |
| Cc1cc(-c2nc(-c3ccccc3)nn2CC(=O)N2CCN(c3ncccn3)CC2)ccc1F [Example 07.04.073.] | 87 |
| O=C(Cn1nc(-c2ccc(F)cc2)nc1-c1ccc(F)cc1)N1CCN(c2cc(O[C@H]3COC[C@H]3O)ncn2)CC1 [Example 07.09.15.] | 224 |
| CCc1cc(N2CCN(C(=O)Cn3nc(-c4ccc(F)cc4)nc3-c3ccc(F)cc3)CC2)ncn1 [Example 07.03.26.] | 177 |
| COc1cc(N2CCN(C(=O)Cn3nc(-c4cc(C)cc(C)c4)nc3-c3ccccc3)CC2)ncn1 [Example 07.10.36.] | 121 |
| Cc1ccnc(N2CCN(C(=O)Cn3nc(-c4ccc(F)c(C)c4)nc3C3CCCCC3)CC2)c1 [Example 07.04.067.] | 207 |

| SMILES | EC50 [nM] |
| --- | --- |
| COc1cc(N2CCN(C(=O)Cn3nc(-c4ccc(F)c(C)c4)nc3-c3ccc(F)c(C)c3)CC2)ncn1 [Example 07.04.155.] | 59 |
| CN(C)c1cncc(N2CCN(C(=O)Cn3nc(-c4ccc(F)cc4)nc3-c3ccc(F)cc3)CC2)n1 [Example 07.03.11.] | 283 |
| COC[C@H](C)Oc1cc(N2CCN(C(=O)Cn3nc(-c4ccc(F)cc4)nc3-c3ccc(F)cc3)CC2)ncn1 [Example 07.09.30.] | 75 |
| Cc1ccnc(N2CCN(C(=O)Cn3nc(-c4ccc(F)c(C)c4)nc3CCC(C)C)CC2)c1 [Example 07.04.121.] | 209 |
| O=C(Cn1nc(-c2ccc(F)cc2)nc1-c1ccc(F)cc1)N1CCN(c2cccnn2)CC1 [Example 07.03.12.] | 134 |
| Cc1ccnc(N2CCN(C(=O)Cn3nc(-c4ccc(F)c(C)c4)nc3-c3ccccc3)CC2)c1 [Example 07.04.062.] | 57 |
| Cc1cc(-c2nc(C3CCC(C)CC3)n(CC(=O)N3CCN(c4ncccn4)CC3)n2)ccc1F (stereo not drawn) [Example 07.04.128.] | 485 |
| COc1cccc(-c2nc(-c3ccc(F)cc3)nn2CC(=O)N2CCN(c3cc(C)ccn3)CC2)c1 [Example 07.04.025.] | 868 |
| CN(C)c1ccnc(N2CCN(C(=O)Cn3nc(-c4ccc(F)cc4)nc3-c3ccc(F)cc3)CC2)c1 [Example 07.03.17.] | 601 |
| CCN(C)c1cc(N2CCN(C(=O)Cn3nc(-c4ccc(F)cc4)nc3-c3ccc(F)cc3)CC2)ncn1 [Example 07.08.19.] | 208 |
| O=C(Cn1nc(-c2ccc(F)cc2)nc1-c1ccc(F)cc1)N1CCN(c2cccnc2)CC1 [Example 07.04.004.] | 600 |
| COc1cc(N2CCN(C(=O)Cn3nc(-c4ccccc4)nc3-c3ccc(F)c(C)c3)CC2)ncn1 [Example 07.04.074.] | 325 |
| Cc1cc(-c2nc(C3CCCCC3C)n(CC(=O)N3CCN(c4ccccn4)CC3)n2)ccc1F (stereo not drawn) [Example 07.04.133.] | 1080 |
| COc1ccnc(N2CCN(C(=O)Cn3nc(-c4ccc(F)c(C)c4)nc3CC(C)C)CC2)c1 [Example 07.04.107.] | 500 |
| COc1cncc(N2CCN(C(=O)Cn3nc(-c4ccc(F)cc4)nc3-c3ccc(F)cc3)CC2)n1 [Example 07.03.18.] | 179 |
| COc1ccc(-c2nc(-c3ccc(OC)cc3)n(CC(=O)N3CCN(c4ccc(C(F)(F)F)cn4)CC3)n2)cc1 [Example 07.02.14.] | 1050 |
| COCc1ccc(-c2nc(-c3ccccc3)nn2CC(=O)N2CCN(c3ncccn3)CC2)cc1 [Example 07.10.24.] | 300 |
| Cc1ccnc(N2CCN(C(=O)Cn3nc(-c4ccc(F)c(C)c4)nc3C3CCCC(C)C3)CC2)c1 (stereo not drawn) [Example 07.04.146.] | 1340 |
| Cc1ccc(N2CCN(C(=O)Cn3nc(-c4ccc(F)cc4)nc3-c3ccc(F)cc3)CC2)nc1 [Example 07.02.06.] | 155 |
| O=C(Cn1nc(-c2ccc(F)cc2)nc1-c1ccc(F)cc1)N1CCN(c2ccnc(F)c2)CC1 [Example 07.01.05.] | 399 |
| COc1cc(N2CCN(C(=O)Cn3nc(-c4cc(F)c(F)c(F)c4)nc3-c3ccccc3)CC2)ncn1 [Example 07.10.39.] | 389 |
| O=C(Cn1nc(-c2ccc(F)cc2)nc1-c1ccc(F)cc1)N1CCN(c2nccc(C(F)(F)F)n2)CC1 [Example 07.03.03.] | 595 |
| CCNc1cc(N2CCN(C(=O)Cn3nc(-c4ccc(F)cc4)nc3-c3ccc(F)cc3)CC2)ncn1 [Example 07.08.12.] | 210 |
| CCCCCc1nc(-c2ccc(F)c(C)c2)nn1CC(=O)N1CCN(c2cc(OC)ncn2)CC1 [Example 07.04.126.] | 110 |
| CN(C)CCOc1cc(N2CCN(C(=O)Cn3nc(-c4ccc(F)cc4)nc3-c3ccc(F)cc3)CC2)ncn1 [Example 07.07.02.] | 988 |
| COc1cc(N2CCN(C(=O)Cn3nc(-c4ccc(OC(F)F)cc4)nc3-c3ccccc3)CC2)ncn1 [Example 7.04.162] | 19 |
| COc1ccc(-c2nc(-c3ccccc3)n(CC(=O)N3CCN(c4cccc(OC)n4)CC3)n2)cc1 [Example 07.04.159.] | 282 |
